In paper PMC5740388, “In Vitro Antibacterial Properties of Cefiderocol, a Novel Siderophore Cephalosporin, against Gram-Negative Bacteria” (Antimicrobial Agents and Chemotherapy, 2017):
Where two headings read alike, the source gives them in different places.

Legend:
Type in all cases: binding
[1] = molecular target: T1, PBP1b of E. coli NIHJ JC-2 (Escherichia coli, UniProt P02919); experiment: competition with […]benzylpenicillin for PBPs; details: covalent
T1 construct: gene mrcB

[2] = molecular target: T2, PBP3 of A. baumannii ATCC 17978 (Acinetobacter baumannii, UniProt A0ABX6CK25); experiment: competition with Bocillin FL for PBPs; details: covalent
T2 construct: gene ftsI
T2 sequence (A0ABX6CK25 1-610): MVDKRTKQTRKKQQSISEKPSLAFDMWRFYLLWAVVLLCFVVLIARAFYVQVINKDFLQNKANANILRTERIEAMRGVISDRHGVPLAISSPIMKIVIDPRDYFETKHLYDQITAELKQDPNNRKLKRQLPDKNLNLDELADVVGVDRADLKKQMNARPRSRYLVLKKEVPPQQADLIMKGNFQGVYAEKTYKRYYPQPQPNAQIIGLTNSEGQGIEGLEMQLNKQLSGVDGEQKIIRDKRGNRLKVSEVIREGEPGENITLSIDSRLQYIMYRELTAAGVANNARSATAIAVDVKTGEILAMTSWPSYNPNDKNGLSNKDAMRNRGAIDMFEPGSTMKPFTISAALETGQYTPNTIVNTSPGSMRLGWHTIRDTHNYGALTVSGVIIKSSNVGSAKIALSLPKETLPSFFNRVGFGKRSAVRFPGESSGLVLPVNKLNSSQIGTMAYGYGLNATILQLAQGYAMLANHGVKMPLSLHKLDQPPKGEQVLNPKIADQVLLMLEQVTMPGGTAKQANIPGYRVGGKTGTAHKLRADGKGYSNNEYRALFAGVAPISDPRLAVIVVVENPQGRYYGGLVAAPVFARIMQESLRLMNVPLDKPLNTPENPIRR
Description: competition with Bocillin FL for PBPs on PBP3 of A. baumannii ATCC 17978

[3] = molecular target: T3, PBP3 of E. coli NIHJ JC-2 (Escherichia coli, UniProt P0AD68); experiment: competition with […]benzylpenicillin for PBPs; details: covalent
T3 construct: gene ftsI
T3 sequence (P0AD68 1-577): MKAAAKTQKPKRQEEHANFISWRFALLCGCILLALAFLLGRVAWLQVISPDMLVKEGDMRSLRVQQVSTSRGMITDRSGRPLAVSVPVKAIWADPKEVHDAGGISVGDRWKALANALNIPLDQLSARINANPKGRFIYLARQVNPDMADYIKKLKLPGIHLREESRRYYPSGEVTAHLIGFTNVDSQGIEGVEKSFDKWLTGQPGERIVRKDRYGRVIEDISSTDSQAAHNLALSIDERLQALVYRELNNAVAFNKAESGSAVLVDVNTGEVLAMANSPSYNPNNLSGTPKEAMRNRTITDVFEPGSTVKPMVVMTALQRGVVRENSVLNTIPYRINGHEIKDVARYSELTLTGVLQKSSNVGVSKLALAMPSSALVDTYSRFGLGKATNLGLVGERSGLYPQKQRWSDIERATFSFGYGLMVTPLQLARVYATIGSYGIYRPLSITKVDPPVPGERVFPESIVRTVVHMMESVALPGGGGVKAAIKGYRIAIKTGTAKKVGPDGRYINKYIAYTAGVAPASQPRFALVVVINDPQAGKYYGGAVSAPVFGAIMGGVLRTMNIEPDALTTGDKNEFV

[4] = molecular target: T4, PBP2 of A. baumannii ATCC 17978 (Acinetobacter baumannii, UniProt D0C8Z9); experiment: competition with Bocillin FL for PBPs; details: covalent
T4 construct: gene mrdA
T4 sequence (D0C8Z9 1-672): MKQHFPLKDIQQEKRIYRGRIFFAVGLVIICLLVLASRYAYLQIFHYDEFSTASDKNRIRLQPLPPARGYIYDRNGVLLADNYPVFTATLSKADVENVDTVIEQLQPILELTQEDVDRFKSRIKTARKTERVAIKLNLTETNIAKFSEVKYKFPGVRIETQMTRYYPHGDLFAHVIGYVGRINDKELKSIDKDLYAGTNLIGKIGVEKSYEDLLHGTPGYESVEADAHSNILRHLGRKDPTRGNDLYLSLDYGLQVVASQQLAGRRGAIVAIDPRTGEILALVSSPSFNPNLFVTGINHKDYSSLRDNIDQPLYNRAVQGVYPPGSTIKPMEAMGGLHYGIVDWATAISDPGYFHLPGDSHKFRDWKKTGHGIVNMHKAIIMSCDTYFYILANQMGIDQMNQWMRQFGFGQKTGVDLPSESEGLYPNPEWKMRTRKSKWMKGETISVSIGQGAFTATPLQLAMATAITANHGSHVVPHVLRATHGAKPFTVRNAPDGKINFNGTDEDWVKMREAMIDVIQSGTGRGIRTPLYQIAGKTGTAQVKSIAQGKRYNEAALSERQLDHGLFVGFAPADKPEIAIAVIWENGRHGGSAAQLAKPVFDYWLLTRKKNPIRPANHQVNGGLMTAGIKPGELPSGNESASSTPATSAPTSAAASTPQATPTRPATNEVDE
Description: competition with Bocillin FL for PBPs on PBP2 of A. baumannii ATCC 17978

[5] = molecular target: T5, PBP1b of P. aeruginosa ATCC 27853 (Pseudomonas aeruginosa, UniProt G3XD31); experiment: competition with […]benzylpenicillin for PBPs; details: covalent; read-out: IC50 (μg/ml) / Ceftazidime
T5 construct: gene mrcB
T5 sequence (G3XD31 1-774): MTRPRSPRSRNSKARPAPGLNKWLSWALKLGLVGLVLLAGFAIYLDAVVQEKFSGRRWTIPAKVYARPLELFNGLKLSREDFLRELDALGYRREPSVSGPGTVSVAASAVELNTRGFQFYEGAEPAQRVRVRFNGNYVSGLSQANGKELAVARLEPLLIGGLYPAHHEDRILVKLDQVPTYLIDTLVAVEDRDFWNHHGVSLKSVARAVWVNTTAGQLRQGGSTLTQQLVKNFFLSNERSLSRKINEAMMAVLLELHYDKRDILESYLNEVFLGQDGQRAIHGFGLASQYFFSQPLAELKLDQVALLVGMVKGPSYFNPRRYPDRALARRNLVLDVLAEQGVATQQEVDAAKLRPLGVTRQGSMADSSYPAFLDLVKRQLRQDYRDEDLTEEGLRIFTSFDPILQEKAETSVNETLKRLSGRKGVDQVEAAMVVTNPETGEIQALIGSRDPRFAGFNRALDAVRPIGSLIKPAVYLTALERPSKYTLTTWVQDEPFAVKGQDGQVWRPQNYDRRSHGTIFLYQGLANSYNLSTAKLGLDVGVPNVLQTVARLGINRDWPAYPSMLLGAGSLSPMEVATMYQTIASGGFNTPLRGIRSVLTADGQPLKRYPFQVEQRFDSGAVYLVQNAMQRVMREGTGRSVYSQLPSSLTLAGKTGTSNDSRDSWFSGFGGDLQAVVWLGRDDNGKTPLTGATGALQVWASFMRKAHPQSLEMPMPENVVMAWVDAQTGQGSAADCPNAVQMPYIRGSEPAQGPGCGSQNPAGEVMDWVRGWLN

[6] = read-out: IC50 (μg/ml) / E. coli NIHJ JC-2 / Cefiderocol (converted)
[7] = read-out: IC50 (μg/ml) / A. baumannii ATCC 17978 ^a / Cefiderocol (converted)

T1 sequence (P02919 whole entry): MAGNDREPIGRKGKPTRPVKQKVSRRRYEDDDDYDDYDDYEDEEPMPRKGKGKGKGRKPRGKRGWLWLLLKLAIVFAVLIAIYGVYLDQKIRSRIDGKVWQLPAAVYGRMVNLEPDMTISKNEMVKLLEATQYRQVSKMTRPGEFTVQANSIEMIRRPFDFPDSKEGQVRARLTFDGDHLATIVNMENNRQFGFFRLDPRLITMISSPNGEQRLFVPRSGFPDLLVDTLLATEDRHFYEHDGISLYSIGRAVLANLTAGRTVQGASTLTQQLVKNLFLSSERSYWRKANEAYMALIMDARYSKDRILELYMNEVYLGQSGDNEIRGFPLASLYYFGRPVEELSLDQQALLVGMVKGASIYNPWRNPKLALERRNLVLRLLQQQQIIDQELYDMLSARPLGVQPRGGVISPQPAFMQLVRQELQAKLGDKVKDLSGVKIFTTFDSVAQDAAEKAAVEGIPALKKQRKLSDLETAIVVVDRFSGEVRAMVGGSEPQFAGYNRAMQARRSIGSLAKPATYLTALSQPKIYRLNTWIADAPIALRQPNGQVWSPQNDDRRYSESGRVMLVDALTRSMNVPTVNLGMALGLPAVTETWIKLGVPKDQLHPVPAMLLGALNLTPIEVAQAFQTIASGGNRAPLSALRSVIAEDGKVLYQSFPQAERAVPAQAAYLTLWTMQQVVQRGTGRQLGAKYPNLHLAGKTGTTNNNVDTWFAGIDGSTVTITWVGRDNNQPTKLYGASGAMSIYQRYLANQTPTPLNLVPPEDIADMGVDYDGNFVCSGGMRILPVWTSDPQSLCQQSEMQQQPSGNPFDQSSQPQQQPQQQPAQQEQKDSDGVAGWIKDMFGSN

| SMILES | IC50 [1, 6] [µM] | IC50 [2, 7] [µM] | IC50 [3, 6] [µM] | IC50 [4, 7] [µM] | IC50 [5] [µM] | IC50 ([1]; read-out: IC50 (μg/ml) / E. coli NIHJ JC-2 / Ceftazidime) [µM] | IC50 ([2]; read-out: IC50 (μg/ml) / A. baumannii ATCC 17978 ^a / Ceftazidime (converted)) [µM] | IC50 ([3]; read-out: IC50 (μg/ml) / E. coli NIHJ JC-2 / Ceftazidime (converted)) [µM] | IC50 ([4]; read-out: IC50 (μg/ml) / A. baumannii ATCC 17978 ^a / Ceftazidime) [µM] |
| --- | --- | --- | --- | --- | --- | --- | --- | --- | --- |
| CC(C)(O/N=C(\C(=O)N[C@@H]1C(=O)N2C(C(=O)[O-])=C(C[N+]3(CCNC(=O)c4ccc(O)c(O)c4Cl)CCCC3)CS[C@H]12)c1csc(N)n1)C(=O)O [cefiderocol] | 4.48 | 0.891 | 0.0532 | 3.07 | > 5.32 | – | – | – | – |
| CC(C)(O/N=C(\C(=O)N[C@@H]1C(=O)N2C(C(=O)[O-])=C(C[n+]3ccccc3)CS[C@H]12)c1csc(N)n1)C(=O)O [ceftazidime] | – | – | – | – | > 7.32 | > 7.32 | 3.26 | 0.823 | > 117 |
